Target: T1, IRAK3 (Homo sapiens, UniProt Q9Y616)
T1 sequence (Q9Y616 1-596): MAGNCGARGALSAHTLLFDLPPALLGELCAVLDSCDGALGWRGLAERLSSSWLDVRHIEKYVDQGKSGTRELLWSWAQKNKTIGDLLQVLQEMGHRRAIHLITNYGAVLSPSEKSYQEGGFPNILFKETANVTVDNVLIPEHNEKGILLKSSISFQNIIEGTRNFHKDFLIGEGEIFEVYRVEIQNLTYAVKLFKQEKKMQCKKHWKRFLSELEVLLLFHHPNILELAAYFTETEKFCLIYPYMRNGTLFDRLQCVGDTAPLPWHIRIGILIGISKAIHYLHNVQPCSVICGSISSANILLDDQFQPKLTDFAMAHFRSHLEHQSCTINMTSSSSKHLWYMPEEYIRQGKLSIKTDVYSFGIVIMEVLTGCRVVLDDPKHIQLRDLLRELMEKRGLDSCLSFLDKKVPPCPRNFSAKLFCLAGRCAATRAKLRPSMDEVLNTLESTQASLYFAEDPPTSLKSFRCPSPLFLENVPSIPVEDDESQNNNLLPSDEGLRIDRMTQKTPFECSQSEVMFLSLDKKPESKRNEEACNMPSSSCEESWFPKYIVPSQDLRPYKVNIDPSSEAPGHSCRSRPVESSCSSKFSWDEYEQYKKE
Assay: IRAK3 biochemical binding assay (LanthaScreen Eu Kinase Binding, TR-FRET)
Details: 10 nM tracer, 10 nM IRAK3, 1 hour at room temperature
Method: Example B3. IRAK3 Biochemical Binding Assay
The LanthaScreen® Eu Kinase Binding assay was performed as described by the vendor (ThermoFisher Scientific Waltham, MA). Briefly, 100× solutions of compound were prepared in DMSO via serial dilution of the 10 mM stock solution in a 384-well reagent plate using 3-fold intervals to achieve final concentrations. 1 μL of the compound dilution series were added to the corresponding wells of a 384-well reagent plate containing 32.3 μL of 1× buffer (50 mM HEPES pH 7.4, […], 1 mM EGTA, 0.01% Brij-35). 5 μL of the buffer diluted compounds were transferred to the corresponding wells of a 384-well assay plate. 5 μL of 3× tracer was transferred to each well of the assay plate for a final tracer concentration of 10 nM. Finally, 5 μL of the 3× Eu-Anti-GST and IRAK3 mix was transferred to each well for a final concentration of 2 nM and 10 nM, respectively. Reactions were allowed to incubate for 1 hour at room temperature. TR-FRET signal of the interaction ([…]/λem 665/λem 615) was read at room temperature with a delay time of 100 μs and an integration time of 200 μs using an Envision plate reader. Background corrected emission signal ratios at each compound concentration were used to calculate percentage of inhibition (% o Inhibition). Plots of % Inhibition versus inhibitor concentrations were fit according to a dose-response equation (Eq. 1) to generate IC50 and Hill slope values using Dotmatics software (Dotmatics, Bishops Storford, Hertfordshire, England).
Using these assays, IC50, Dmax, EC50, and DC50 values of the following compounds were determined. Dmax is defined as the maximum percent degradation achieved and DC50 is the concentration at which 50% degradation is achieved.

| SMILES | IC50 |
| --- | --- |
| C[C@@H](Oc1cc(-c2cnn(C3CCN(C4CCC5(CC4)CCN(C(=O)c4cccc6c4CN(C4CCC(=O)NC4=O)C6=O)CC5)CC3)c2)cnc1N)c1c(Cl)ccc(F)c1Cl (stereo partly drawn) [Compound 21, 3-(4-(9-(4-(4-(6-amino-5-((R)-1-(2,6-dichloro-3-fluorophenyl)ethoxy)pyridin-3-yl)-1H-pyrazol-1-yl)piperidin-1-yl)-3-azaspiro[5.5]undecane-3-carbonyl)-1-oxoisoindolin-2-yl)piperidine-2,6-dione] | 2 nM |
| C[C@@H](Oc1cc(-c2cnn(C3CCN(CCNC(=O)COc4cccc5c4C(=O)N(C4CCC(=O)NC4=O)C5=O)CC3)c2)cnc1N)c1c(Cl)ccc(F)c1Cl (stereo partly drawn) [Compound 8, N-(2-(4-(4-(6-amino-5-((R)-1-(2,6-dichloro-3-fluorophenyl)ethoxy)pyridin-3-yl)-1H-pyrazol-1-yl)piperidin-1-yl)ethyl)-2-((2-(2,6-dioxopiperidin-3-yl)-1,3-dioxoisoindolin-4-yl)oxy)acetamide] | 25 nM |
| C[C@@H](Oc1cc(-c2cnn(C3CCN(C4CCC5(CC4)CCN(C(=O)c4ccc6c(c4)C(=O)N(C4CCC(=O)NC4=O)C6)CC5)CC3)c2)cnc1N)c1c(Cl)ccc(F)c1Cl (stereo partly drawn) [Compound 19, 3-(6-(9-(4-(4-(6-amino-5-((R)-1-(2,6-dichloro-3-fluorophenyl)ethoxy)pyridin-3-yl)-1H-pyrazol-1-yl)piperidin-1-yl)-3-azaspiro[5.5]undecane-3-carbonyl)-1-oxoisoindolin-2-yl)piperidine-2,6-dione] | 4 nM |
| Cc1ncsc1-c1ccc(CNC(=O)[C@@H]2C[C@@H](O)CN2C(=O)[C@@H](NC(=O)CCCN2CCC(n3cc(-c4cnc(N)c(O[C@H](C)c5c(Cl)ccc(F)c5Cl)c4)cn3)CC2)C(C)(C)C)cc1 [Compound 1, (2S,4R)-1-((S)-2-(4-(4-(4-(6-amino-5-((R)-1-(2,6-dichloro-3-fluorophenyl)ethoxy)pyridin-3-yl)-1H-pyrazol-1-yl)piperidin-1-yl)butanamido)-3,3-dimethylbutanoyl)-4-hydroxy-N-(4-(4-methylthiazol-5-yl)benzyl)pyrrolidine-2-carboxamide] | 111 nM |
| C[C@@H](Oc1cc(-c2cnn(C3CCN(C4CCC5(CC4)CCN(C(=O)c4cccc(NC6CCC(=O)NC6=O)c4)CC5)CC3)c2)cnc1N)c1c(Cl)ccc(F)c1Cl (stereo partly drawn) [Compound 22, 3-((3-(9-(4-(4-(6-Amino-5-((R)-1-(2,6-dichloro-3-fluorophenyl)ethoxy)pyridin-3-yl)-1H-pyrazol-1-yl)piperidin-1-yl)-3-azaspiro[5.5]undecane-3-carbonyl)phenyl)amino)piperidine-2,6-dione] | 5 nM |
| C[C@@H](Oc1cc(-c2cnn(C3CCN(CCOCCOCCNC(=O)COc4ccc5c(c4)C(=O)N(C4CCC(=O)NC4=O)C5=O)CC3)c2)cnc1N)c1c(Cl)ccc(F)c1Cl (stereo partly drawn) [Compound 15, N-(2-(2-(2-(4-(4-(6-amino-5-((R)-1-(2,6-dichloro-3-fluorophenyl)ethoxy)pyridin-3-yl)-1H-pyrazol-1-yl)piperidin-1-yl)ethoxy)ethoxy)ethyl)-2-((2-(2,6-dioxopiperidin-3-yl)-1,3-dioxoisoindolin-5-yl)oxy)acetamide] | 64 nM |
| C[C@@H](Oc1cc(-c2cnn(C3CCN(C4CCC5(CC4)CCN(C(=O)c4ccc6c(c4)CN(C4CCC(=O)NC4=O)C6=O)CC5)CC3)c2)cnc1N)c1c(Cl)ccc(F)c1Cl (stereo partly drawn) [Compound 20, 3-(5-(9-(4-(4-(6-amino-5-((R)-1-(2,6-dichloro-3-fluorophenyl)ethoxy)pyridin-3-yl)-1H-pyrazol-1-yl)piperidin-1-yl)-3-azaspiro[5.5]undecane-3-carbonyl)-1-oxoisoindolin-2-yl)piperidine-2,6-dione] | 10 nM |
| C[C@@H](Oc1cc(-c2cnn(C3CCN(CCOCCOCCOCCOCCNC(=O)COc4ccc5c(c4)C(=O)N(C4CCC(=O)NC4=O)C5=O)CC3)c2)cnc1N)c1c(Cl)ccc(F)c1Cl (stereo partly drawn) [Compound 17, N-(14-(4-(4-(6-amino-5-((R)-1-(2,6-dichloro-3-fluorophenyl)ethoxy)pyridin-3-yl)-1H-pyrazol-1-yl)piperidin-1-yl)-3,6,9,12-tetraoxatetradecyl)-2-((2-(2,6-dioxopiperidin-3-yl)-1,3-dioxoisoindolin-5-yl)oxy)acetamide] | 100 nM |
| C[C@@H](Oc1cc(-c2cnn(C3CCN(CCOCCOCCOCCNC(=O)COc4ccc5c(c4)C(=O)N(C4CCC(=O)NC4=O)C5=O)CC3)c2)cnc1N)c1c(Cl)ccc(F)c1Cl (stereo partly drawn) [Compound 16, N-(2-(2-(2-(2-(4-(4-(6-amino-5-((R)-1-(2,6-dichloro-3-fluorophenyl)ethoxy)pyridin-3-yl)-1H-pyrazol-1-yl)piperidin-1-yl)ethoxy)ethoxy)ethoxy)ethyl)-2-((2-(2,6-dioxopiperidin-3-yl)-1,3-dioxoisoindolin-5-yl)oxy)acetamide] | 47 nM |
| C[C@@H](Oc1cc(-c2cnn(C3CCN(CCOCCOCCOCCNC(=O)COc4cccc5c4C(=O)N(C4CCC(=O)NC4=O)C5=O)CC3)c2)cnc1N)c1c(Cl)ccc(F)c1Cl (stereo partly drawn) [Compound 11, N-(2-(2-(2-(2-(4-(4-(6-amino-5-((R)-1-(2,6-dichloro-3-fluorophenyl)ethoxy)pyridin-3-yl)-1H-pyrazol-1-yl)piperidin-1-yl)ethoxy)ethoxy)ethoxy)ethyl)-2-((2-(2,6-dioxopiperidin-3-yl)-1,3-dioxoisoindolin-4-yl)oxy)acetamide] | 95 nM |
| C[C@@H](Oc1cc(-c2cnn(C3CCN(CCOCCOCCOCCOCCNC(=O)COc4cccc5c4C(=O)N(C4CCC(=O)NC4=O)C5=O)CC3)c2)cnc1N)c1c(Cl)ccc(F)c1Cl (stereo partly drawn) [Compound 12, N-(14-(4-(4-(6-amino-5-((R)-1-(2,6-dichloro-3-fluorophenyl)ethoxy)pyridin-3-yl)-1H-pyrazol-1-yl)piperidin-1-yl)-3,6,9,12-tetraoxatetradecyl)-2-((2-(2,6-dioxopiperidin-3-yl)-1,3-dioxoisoindolin-4-yl)oxy)acetamide] | 56 nM |
| C[C@@H](Oc1cc(-c2cnn(C3CCN(CCOCCNC(=O)COc4cccc5c4C(=O)N(C4CCC(=O)NC4=O)C5=O)CC3)c2)cnc1N)c1c(Cl)ccc(F)c1Cl (stereo partly drawn) [Compound 9, N-(2-(2-(4-(4-(6-amino-5-((R)-1-(2,6-dichloro-3-fluorophenyl)ethoxy)pyridin-3-yl)-1H-pyrazol-1-yl)piperidin-1-yl)ethoxy)ethyl)-2-((2-(2,6-dioxopiperidin-3-yl)-1,3-dioxoisoindolin-4-yl)oxy)acetamide] | 45 nM |
| C[C@@H](Oc1cc(-c2cnn(C3CCN(CCOCCNC(=O)COc4ccc5c(c4)C(=O)N(C4CCC(=O)NC4=O)C5=O)CC3)c2)cnc1N)c1c(Cl)ccc(F)c1Cl (stereo partly drawn) [Compound 14, N-(2-(2-(4-(4-(6-amino-5-((R)-1-(2,6-dichloro-3-fluorophenyl)ethoxy)pyridin-3-yl)-1H-pyrazol-1-yl)piperidin-1-yl)ethoxy)ethyl)-2-((2-(2,6-dioxopiperidin-3-yl)-1,3-dioxoisoindolin-5-yl)oxy)acetamide] | 70 nM |
| C[C@@H](Oc1cc(-c2cnn(C3CCN(C4CCC5(CC4)CCN(C(=O)c4ccc6c(c4)C(=O)N(C4CCC(=O)NC4=O)C6=O)CC5)CC3)c2)cnc1N)c1c(Cl)ccc(F)c1Cl (stereo partly drawn) [Compound 18, 5-(9-(4-(4-(6-amino-5-((R)-1-(2,6-dichloro-3-fluorophenyl)ethoxy)pyridin-3-yl)-1H-pyrazol-1-yl)piperidin-1-yl)-3-azaspiro[5.5]undecane-3-carbonyl)-2-(2,6-dioxopiperidin-3-yl)isoindoline-1,3-dione] | 12 nM |
| Cc1ncsc1-c1ccc(CNC(=O)[C@@H]2C[C@@H](O)CN2C(=O)[C@@H](NC(=O)COCCOCCOCCN2CCC(n3cc(-c4cnc(N)c(O[C@H](C)c5c(Cl)ccc(F)c5Cl)c4)cn3)CC2)C(C)(C)C)cc1 [Compound 3, (2S,4R)-1-((S)-14-(4-(4-(6-amino-5-((R)-1-(2,6-dichloro-3-fluorophenyl)ethoxy)pyridin-3-yl)-1H-pyrazol-1-yl)piperidin-1-yl)-2-(tert-butyl)-4-oxo-6,9,12-trioxa-3-azatetradecanoyl)-4-hydroxy-N-(4-(4-methylthiazol-5-yl)benzyl)pyrrolidine-2-carboxamide] | 186 nM |
